From PubChem BioAssay (NCI)
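Growth conditions: 96-well plates. Treatment: test compound, 48 hours, 5 concentrations. Analysis: linear interpolation between bracketing concentrations; unreached endpoints set to highest concentration. Here, GI50 denotes the concentration required for 50% inhibition of growth. Definition used: TGI = concentration required for complete inhibition of growth.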

Columns and labels:
Experiment in all cases: inhibition of tumour cell growth, NCI panel, 48 h
[1] = tested on: BT-549 breast
[2] = tested on: HOP-62 NSCLC
[3] = tested on: CAKI-1 renal
[4] = tested on: SK-MEL-5 melanoma
[5] = tested on: SF-539 CNS
[6] = tested on: A549 NSCLC
[7] = tested on: MDA-MB-231 breast
[8] = tested on: SF-268 CNS
[9] = tested on: SK-MEL-2 melanoma
[10] = tested on: NCI/ADR-RES ovarian
[11] = tested on: RPMI-8226 leukemia
[12] = tested on: NCI-H522 lung
[13] = tested on: NCI-H226 lung
[14] = tested on: MALME-3M melanoma
[15] = tested on: UACC-257 melanoma
[16] = tested on: EKVX NSCLC
[17] = tested on: A498 renal
[18] = tested on: HCT-15 colon
[19] = tested on: SK-MEL-28 melanoma
[20] = tested on: K-562 leukemia
[21] = tested on: SK-OV-3 ovarian
[22] = tested on: M14 melanoma
[23] = tested on: OVCAR-3 ovarian
[24] = tested on: OVCAR-5 ovarian
[25] = tested on: IGROV1 ovarian
[26] = tested on: TK-10 renal
[27] = tested on: NCI-H460 lung
[28] = tested on: CCRF-CEM leukemia
[29] = tested on: OVCAR-4 ovarian
[30] = tested on: MOLT-4 leukemia
[31] = tested on: SR leukemia
[32] = tested on: DU-145 prostate
[33] = tested on: COLO 205 colon
[34] = tested on: MDA-MB-435
[35] = tested on: NCI-H23 lung
[36] = tested on: MCF7 breast
[37] = tested on: U251 CNS
[38] = tested on: SW-620 colon
[39] = tested on: UO-31 renal
[40] = tested on: SNB-19 CNS
[41] = tested on: HT29 colon
[42] = tested on: RXF 393 renal
[43] = tested on: HOP-92 NSCLC
[44] = tested on: SN12C renal
[45] = tested on: PC-3 prostate
[46] = tested on: KM12 colon
[47] = tested on: LOX IMVI melanoma
[48] = tested on: T-47D breast
[49] = tested on: HS 578T breast
[50] = tested on: SF-295 CNS
[51] = tested on: OVCAR-8 ovarian
[52] = tested on: 786-0 renal
[53] = tested on: HCC-2998 colon
[54] = tested on: HCT-116 colon
[55] = tested on: ACHN renal
[56] = tested on: UACC-62 melanoma
[57] = tested on: SNB-75 CNS
[58] = tested on: HL-60(TB) leukemia

COc1ccc2c(-c3ccc(OCCN(C)C)cc3)c(Oc3ccccc3)c(=O)oc2c1
TGI [1]: 24.4 µM
TGI [2]: 27.3 µM
TGI [3]: 25.1 µM
TGI [4]: 5.89 µM
TGI [5]: 16.7 µM
TGI [6]: 10.4 µM
TGI [7]: 10.2 µM
TGI [8]: 18.9 µM
TGI [9]: 13.9 µM
TGI [10]: 20.4 µM
TGI [11]: 15.5 µM
TGI [12]: 11.3 µM
TGI [13]: 40 µM
TGI [14]: 11.6 µM
TGI [15]: 4.52 µM
TGI [16]: 23.5 µM
TGI [17]: 26.8 µM
TGI [18]: 14.6 µM
TGI [19]: 5.53 µM
TGI [20]: 12.4 µM
TGI [21]: 18.1 µM
TGI [22]: 3.08 µM
TGI [23]: 21.2 µM
TGI [24]: 28.2 µM
TGI [25]: 19.1 µM
TGI [26]: 23 µM
TGI [27]: 22.2 µM
TGI [28]: 10.1 µM
TGI [29]: 40.7 µM
TGI [30]: 11.8 µM
TGI [31]: 5.17 µM
TGI [32]: 27.6 µM
TGI [33]: 9.59 µM
TGI [34]: 7.12 µM
TGI [35]: 28.8 µM
TGI [36]: 15.3 µM
TGI [37]: 8.9 µM
TGI [38]: 16.7 µM
TGI [39]: 13.9 µM
TGI [40]: 17.2 µM
TGI [41]: 22.4 µM
TGI [42]: 20.5 µM
TGI [43]: 25.8 µM
TGI [44]: 18.7 µM
TGI [45]: 18.9 µM
TGI [46]: > 39.4 µM
TGI [47]: 26.6 µM
TGI [48]: > 59.9 µM
TGI [49]: 21.5 µM
TGI [50]: 8.91 µM
TGI [51]: 26.2 µM
TGI [52]: 8.68 µM
TGI [53]: 10.3 µM
TGI [54]: 8.79 µM
TGI [55]: 22 µM
TGI [56]: 9.82 µM
TGI [57]: 21.6 µM

O=C1c2ccccc2C(=O)c2c1ccc(C(Br)Br)c2Cl
GI50 [1]: 1.79 µM
TGI [1]: 4.61 µM
GI50 [2]: 2.1 µM
TGI [2]: 4.67 µM
GI50 [4]: 5.84 µM
TGI [4]: 18.1 µM
GI50 [5]: 1.99 µM
TGI [5]: 4.61 µM
GI50 [6]: 16.7 µM
TGI [6]: 32.3 µM
GI50 [7]: 1.87 µM
TGI [7]: 3.7 µM
GI50 [8]: 1.68 µM
TGI [8]: 3.45 µM
GI50 [9]: 3.27 µM
TGI [9]: 12.4 µM
GI50 [10]: 3.1 µM
TGI [10]: 14.9 µM
GI50 [12]: 1.6 µM
TGI [12]: 3.3 µM
GI50 [13]: 4.49 µM
TGI [13]: 24.4 µM
GI50 [14]: 1.69 µM
TGI [14]: 3.38 µM
GI50 [15]: 12.1 µM
TGI [15]: 24.8 µM
GI50 [16]: 4.42 µM
TGI [16]: 17.8 µM
GI50 [17]: 17 µM
TGI [17]: 31.9 µM
GI50 [18]: 1.69 µM
TGI [18]: 3.4 µM
GI50 [19]: 11.9 µM
TGI [19]: 24.4 µM
GI50 [21]: 15.1 µM
TGI [21]: 30 µM
GI50 [22]: 2.67 µM
TGI [22]: 9.06 µM
GI50 [23]: 1.66 µM
TGI [23]: 3.12 µM
GI50 [24]: 11.1 µM
TGI [24]: 23.9 µM
GI50 [25]: 1.7 µM
TGI [25]: 3.89 µM
GI50 [26]: 3.91 µM
TGI [26]: 12.3 µM
GI50 [27]: 2.01 µM
TGI [27]: 3.85 µM
GI50 [28]: 2.1 µM
TGI [28]: 8.21 µM
GI50 [29]: 1.78 µM
TGI [29]: 4.3 µM
GI50 [30]: 2.81 µM
TGI [30]: 9.32 µM
GI50 [31]: 1.83 µM
TGI [31]: 4.33 µM
GI50 [32]: 2.07 µM
TGI [32]: 4.7 µM
GI50 [34]: 3.03 µM
TGI [34]: 10.9 µM
GI50 [35]: 1.91 µM
TGI [35]: 4.92 µM
GI50 [36]: 1.69 µM
TGI [36]: 3.86 µM
GI50 [37]: 1.75 µM
TGI [37]: 3.24 µM
GI50 [38]: 1.78 µM
TGI [38]: 3.4 µM
GI50 [39]: 1.73 µM
TGI [39]: 3.78 µM
GI50 [40]: 3.55 µM
TGI [40]: 13.5 µM
GI50 [58]: 3.66 µM
TGI [58]: 11.2 µM
GI50 [41]: 1.87 µM
TGI [41]: 3.54 µM
GI50 [42]: 2 µM
TGI [42]: 4.79 µM
GI50 [43]: 1.67 µM
TGI [43]: 3.35 µM
GI50 [44]: 1.92 µM
TGI [44]: 3.82 µM
GI50 [45]: 2.38 µM
TGI [45]: 6.28 µM
GI50 [46]: 2.04 µM
TGI [46]: 5.28 µM
GI50 [47]: 1.59 µM
TGI [47]: 3.08 µM
GI50 [48]: 1.76 µM
TGI [48]: 5.79 µM
GI50 [49]: 2.81 µM
TGI [49]: 9.11 µM
GI50 [50]: 11.7 µM
TGI [50]: 23.9 µM
GI50 [51]: 3.16 µM
TGI [51]: 8.87 µM
GI50 [52]: 1.71 µM
TGI [52]: 3.25 µM
GI50 [53]: 3.42 µM
TGI [53]: 12.1 µM
GI50 [54]: 1.58 µM
TGI [54]: 3.02 µM
GI50 [55]: 1.57 µM
TGI [55]: 3.02 µM
GI50 [56]: 4.56 µM
TGI [56]: 16.6 µM
GI50 [57]: 13.7 µM
TGI [57]: 26.9 µM

OCC#Cc1ccccc1C#CCCCCCCC#Cc1ccccc1C#CCO
GI50 [1]: 20.2 µM
TGI [1]: 37.9 µM
GI50 [2]: 9.78 µM
TGI [2]: 25.8 µM
GI50 [3]: 17.4 µM
TGI [3]: 32.8 µM
GI50 [4]: 17 µM
TGI [4]: 31.3 µM
GI50 [5]: 18.7 µM
TGI [5]: 32.8 µM
GI50 [6]: 17.2 µM
TGI [6]: 33.9 µM
GI50 [7]: 9.97 µM
TGI [7]: 24.8 µM
GI50 [8]: 16.2 µM
TGI [8]: 32.5 µM
GI50 [9]: 34.6 µM
TGI [9]: > 100 µM
GI50 [10]: 17.7 µM
TGI [10]: 33 µM
GI50 [12]: 0.882 µM
GI50 [13]: 16.4 µM
TGI [13]: 33.1 µM
GI50 [14]: 15.7 µM
TGI [14]: 30.1 µM
GI50 [15]: 18.9 µM
TGI [15]: 34.5 µM
GI50 [16]: 17.5 µM
TGI [16]: 32.7 µM
GI50 [17]: 21.5 µM
TGI [17]: 36.1 µM
GI50 [18]: 23.2 µM
TGI [18]: 59.6 µM
GI50 [19]: 23.6 µM
TGI [19]: 62.2 µM
GI50 [20]: 15.8 µM
TGI [20]: 40.8 µM
GI50 [21]: 15.8 µM
TGI [21]: 30.5 µM
GI50 [22]: 5.64 µM
TGI [22]: 22.9 µM
GI50 [23]: 18.3 µM
TGI [23]: 33.4 µM
GI50 [24]: 17 µM
TGI [24]: 30.7 µM
GI50 [25]: 7.97 µM
TGI [25]: 44.3 µM
GI50 [26]: 19.2 µM
TGI [26]: 34.2 µM
GI50 [27]: 20.5 µM
TGI [27]: 47.4 µM
GI50 [29]: 18.4 µM
TGI [29]: 45.6 µM
GI50 [30]: 11.1 µM
TGI [30]: 30.8 µM
GI50 [31]: 16 µM
TGI [31]: 34.6 µM
GI50 [32]: 19.1 µM
TGI [32]: 35.1 µM
GI50 [33]: 18.8 µM
TGI [33]: 36.4 µM
GI50 [34]: 18.1 µM
TGI [34]: 34.1 µM
GI50 [35]: 17.1 µM
TGI [35]: 30.9 µM
GI50 [36]: 18.4 µM
TGI [36]: 40.7 µM
GI50 [37]: 18.2 µM
TGI [37]: 34.1 µM
GI50 [38]: 22.2 µM
TGI [38]: 41.6 µM
GI50 [39]: 24 µM
TGI [39]: > 53.1 µM
GI50 [40]: 18.6 µM
TGI [40]: 34.2 µM
GI50 [58]: 25.2 µM
TGI [58]: 48.5 µM
GI50 [41]: 22.7 µM
TGI [41]: > 75.9 µM
GI50 [42]: 16.8 µM
TGI [42]: 33.6 µM
GI50 [43]: 13.1 µM
TGI [43]: 26.5 µM
GI50 [44]: 15.8 µM
TGI [44]: 31.1 µM
GI50 [45]: 15.9 µM
TGI [45]: 33.3 µM
GI50 [46]: 18.1 µM
TGI [46]: 37.1 µM
GI50 [47]: 18 µM
TGI [47]: 34.7 µM
GI50 [48]: 18.1 µM
TGI [48]: 33.7 µM
GI50 [49]: 18.2 µM
TGI [49]: 39.1 µM
GI50 [50]: 14.6 µM
TGI [50]: 28.6 µM
GI50 [51]: 17 µM
TGI [51]: 35.8 µM
GI50 [52]: 17.3 µM
TGI [52]: 31.1 µM
GI50 [53]: 17.7 µM
TGI [53]: 31.5 µM
GI50 [54]: 10.7 µM
TGI [54]: 24.5 µM
GI50 [55]: 17.4 µM
TGI [55]: 31.5 µM
GI50 [56]: 16.8 µM
TGI [56]: 31.4 µM
